One may read the EC50 as the midpoint of the concentration-response curve.

This assay has as its system AMPK. The assay is described as follows: AMPK activation assay (enzyme-linked immunosorbent assay). It counts as cell-based. How it is done: Compounds were assayed for their ability to activate AMPK using an enzyme-linked immunosorbent assay. Reagents and procedures for measuring AMPK activation are well known and kits for AMPK activation assays are commercially available.

Bounds are passed on as bounds.

Turning to `N#Cc1ccc(CN2CCC(NC(=O)c3ccc(NC4CCN(c5ccccc5)CC4)cn3)CC2)cc1` [Compound 126, N-(1-(4-cyanobenzyl)piperidin-4-yl)-5-(1-phenylpiperidin-4-ylamino)picolinamide], the half-maximal effective concentration (EC50) is less than 500 nM.

As for `O=C(Nc1ccc(Oc2ccc(F)cc2)nc1)c1ccc(C(=O)N2CCN(Cc3ccc(F)cc3)CC2)cn1` [Compound 65, 5-(4-(4-fluorobenzyl)piperazine-1-carbonyl)-N-(6-(4-fluorophenoxy)pyridin-3-yl)picolinamide], the EC50 was less than 500 nM.

`CS(=O)(=O)c1ccc(C(=O)C2CCN(C(=O)c3ccc(C(=O)NC4CCN(Cc5ccc(F)cc5)CC4)nc3)CC2)cc1` [Compound 225, N-(1-(4-fluorobenzyl)piperidin-4-yl)-5-(4-(4-(methylsulfonyl)benzoyl)piperidine-1-carbonyl)picolinamide] displayed a concentration for a half-maximal effect (EC50) of less than 500 nM.

`O=C(Nc1ccc(Oc2cccc(F)c2)cc1)c1ccc(C(=O)N2CCN(Cc3ccc(F)cc3)CC2)cn1` [Compound 55, 5-(4-(4-fluorobenzyl)piperazine-1-carbonyl)-N-(4-(3-fluorophenoxy)phenyl)picolinamide] had a concentration giving a half-maximal response (EC50) of less than 500 nM.

With `N#Cc1ccc(CN2CCC(NC(=O)c3ccc(C(=O)N4CCC(Oc5ccncc5)CC4)cn3)CC2)cc1` [Compound 269, N-(1-(4-cyanobenzyl)piperidin-4-yl)-5-(4-(pyridin-4-yloxy)piperidine-1-carbonyl)picolinamide], the EC50 was less than 500 nM.

For the compound `CC(=O)Nc1ccc(OC2CCN(C(=O)c3ccc(C(=O)NC4CCN(Cc5ccc(C#N)cc5)CC4)cn3)CC2)cc1` [Compound 366, 6-(4-(4-acetamidophenoxy)piperidine-1-carbonyl)-N-(1-(4-cyanobenzyl)piperidin-4-yl)nicotinamide], the concentration for a half-maximal effect (EC50) was less than 500 nM.

Regarding `N#Cc1ccc(Oc2ccc(NC(=O)c3ccc(C(=O)N4CCC(S(=O)(=O)c5ccc(F)cc5)CC4)nc3)cn2)cc1` [Compound 472, N-(6-(4-cyanophenoxy)pyridin-3-yl)-6-(4-(4-fluorophenylsulfonyl)piperidine-1-carbonyl)nicotinamide], the EC50 lay within 1000 to 5000 nM.

`O=C(Nc1ccc(Oc2ccc(F)cc2)nc1)c1ccc(C(=O)N2CCC(Oc3ccc(S(=O)(=O)C4CC4)cc3)CC2)nc1` [Compound 247, 6-(4-(4-(cyclopropylsulfonyl)phenoxy)piperidine-1-carbonyl)-N-(6-(4-fluorophenoxy)pyridin-3-yl)nicotinamide] showed an EC50 of less than 500 nM.

On to `N#Cc1ccc(CN2CCC(NC(=O)c3ccc(C(=O)N4CCC(Oc5ccc([N+](=O)[O-])cc5)CC4)nc3)CC2)cc1` [Compound 363, N-(1-(4-cyanobenzyl)piperidin-4-yl)-6-(4-(4-nitrophenoxy)piperidine-1-carbonyl)nicotinamide], for which the concentration giving a half-maximal response (EC50) is less than 500 nM.

As for `COc1ccc(CN2CCC(NC(=O)c3ccc(C(=O)N4CCC(C(=O)c5ccc(F)cc5F)CC4)cn3)CC2)cc1` [Compound 331, 5-(4-(2,4-difluorobenzoyl)piperidine-1-carbonyl)-N-(1-(4-methoxybenzyl)piperidin-4-yl) picolinamide], the EC50 is less than 500 nM.

The compound `CS(=O)(=O)c1ccc(OC2CCN(C(=O)c3ccc(C(=O)NC4CCN(Cc5ccc(N6CCCC6)cc5)CC4)nc3)CC2)cc1` [Compound 208, 5-(4-(4-(methylsulfonyl)phenoxy)piperidine-1-carbonyl)-N-(1-(4-(pyrrolidin-1-yl)benzyl)piperidin-4-yl)picolinamide] gave an EC50 of less than 500 nM.

`CS(=O)(=O)c1ccc(N2CCC(NC(=O)c3ccc(C(=O)N4CCN(Cc5ccc(F)cc5)CC4)nc3)CC2)cc1` [Compound 421, 6-(4-(4-fluorobenzyl)piperazine-1-carbonyl)-N-(1-(4-(methylsulfonyl)phenyl)piperidin-4-yl)nicotinamide] returned an EC50 of 1000 to 5000 nM.

The compound `CS(=O)(=O)c1ccc(OC2CCN(C(=O)c3ccc(C(=O)NC4CCN(Cc5ccc(F)cc5)CC4)cn3)CC2)cc1` [Compound 396, N-(1-(4-fluorobenzyl)piperidin-4-yl)-6-(4-(4-(methylsulfonyl)phenoxy)piperidine-1-carbonyl)nicotinamide] displayed an EC50 of 1000 to 5000 nM.

`N#Cc1ccc(OC2CCN(C(=O)c3ccc(C(=O)NC4CCN(Cc5cc(F)cc(F)c5)CC4)nc3)CC2)cc1` [Compound 289, 5-(4-(4-cyanophenoxy)piperidine-1-carbonyl)-N-(1-(3,5-difluorobenzyl)piperidin-4-yl)picolinamide] displayed an EC50 of less than 500 nM.

In the case of `O=C(Nc1ccc(Oc2ccc(F)cc2)nc1)c1ccc(C(=O)N2CCC(C(=O)c3ccc(N4CCCC4)cc3)CC2)cn1` [Compound 368, N-(6-(4-fluorophenoxy)pyridin-3-yl)-5-(4-(4-(pyrrolidin-1-yl)benzoyl)piperidine-1-carbonyl)picolinamide], the 50% effective concentration (EC50) is less than 500 nM.

In turn, `N#Cc1ccc(CC2CCC(NC(=O)c3cccc(C(=O)N4CCN(Cc5ccc(F)cc5)CC4)n3)CC2)cc1` (centres unmarked) [Compound 99, N-(4-(4-cyanobenzyl)cyclohexyl)-6-(4-(4-fluorobenzyl)piperazine-1-carbonyl)picolinamide] displayed a 50% effective concentration (EC50) of 5000 to 10000 nM.

In turn, `CC(=O)c1ccc(Oc2ccc(NC(=O)c3ccc(C(=O)N4CCC(Oc5ccc(S(=O)(=O)C6CC6)cc5)CC4)nc3)cn2)cc1` [Compound 486, N-(6-(4-acetylphenoxy)pyridin-3-yl)-6-(4-(4-(cyclopropylsulfonyl)phenoxy)piperidine-1-carbonyl)nicotinamide] came in with a 50% effective concentration (EC50) of less than 500 nM.

In the case of `N#Cc1ccc(CN2CCC(NC(=O)c3ccc(C(=O)N4CCC(Oc5ccc(NS(=O)(=O)C6CC6)cc5)CC4)nc3)CC2)cc1` [Compound 448, N-(1-(4-cyanobenzyl)piperidin-4-yl)-6-(4-(4-(cyclopropanesulfonamido)phenoxy)piperidine-1-carbonyl)nicotinamide], the 50% effective concentration (EC50) lay in the range of 1000 to 5000 nM.

For `O=C(NC1CCN(Cc2ccc(N3CCCC3)cc2)CC1)c1ccc(C(=O)N2CCC(C(=O)c3ccc(N4CCCC4)cc3)CC2)nc1` [Compound 444, 6-(4-(4-(pyrrolidin-1-yl)benzoyl)piperidine-1-carbonyl)-N-(1-(4-(pyrrolidin-1-yl)benzyl)piperidin-4-yl)nicotinamide], the EC50 was less than 500 nM.

In turn, `N#Cc1ccc(O[C@H]2CC[C@@H](NC(=O)c3ccc(C(=O)N4CCC(Oc5ccc(F)cc5)CC4)cn3)CC2)cc1` [Compound 167, N-((cis)-4-(4-cyanophenoxy)cyclohexyl)-5-(4-(4-fluorophenoxy)piperidine-1-carbonyl)picolinamide] displayed an EC50 of less than 500 nM.

Take `O=C(NC1CCN(Cc2cc(F)cc(F)c2)CC1)c1ccc(C(=O)N2CCC(Oc3ccc(F)c(F)c3)CC2)cn1` [Compound 297, N-(1-(3,5-difluorobenzyl)piperidin-4-yl)-5-(4-(3,4-difluorophenoxy)piperidine-1-carbonyl)picolinamide]: the 50% effective concentration (EC50) is less than 500 nM.

On to `N#Cc1ccc(CN2CCC(NC(=O)c3ccc(C(=O)N4CCC(S(=O)(=O)c5ccc(F)cc5)CC4)cn3)CC2)cc1` [Compound 262, N-(1-(4-cyanobenzyl)piperidin-4-yl)-5-(4-(4-fluorophenylsulfonyl)piperidine-1-carbonyl)picolinamide], for which the EC50 is less than 500 nM.

On to `N#Cc1ccc(O[C@H]2CC[C@@H](NC(=O)c3ccc(C(=O)N4CC[C@H](Oc5ccc(F)cc5)C4)cn3)CC2)cc1` [Compound 176, N-((cis)-4-(4-cyanophenoxy)cyclohexyl)-5-((S)-3-(4-fluorophenoxy)pyrrolidine-1-carbonyl)picolinamide], for which the EC50 is 1000 to 5000 nM.

The record behind these values is patent US20150087673A1, “METHODS FOR USING AND BIOMARKERS FOR AMPK-ACTIVATING COMPOUNDS” (RIGEL PHARMACEUTICALS, INC., priority 2013, published 2015).
